Data taken from ChEMBL document CHEMBL5724914, “Linking interpersonal differences in gut microbiota composition and drug biotransformation activity” (2024).

settings: human gut metagenome, 24 h, 2 µM
Further: call rule not given here.

Bacterial Biotransformation | Compound
Compound metabolized | OC(c1cc(C(F)(F)F)nc2c(C(F)(F)F)cccc12)C1CCCCN1 (stereo not given) [MEFLOQUINE]
Compound metabolized | CC(=O)O[C@]1(C(C)=O)CC[C@H]2[C@@H]3C=C(C)C4=CC(=O)CC[C@]4(C)[C@H]3CC[C@@]21C [MEGESTROL ACETATE]

settings: human gut metagenome, 24 h, 2 µM; remark: another data set of the same source

Bacterial Biotransformation | Compound
Compound metabolized | OC(c1cc(C(F)(F)F)nc2c(C(F)(F)F)cccc12)C1CCCCN1 (stereo not given) [MEFLOQUINE]
Compound metabolized | CC(=O)O[C@]1(C(C)=O)CC[C@H]2[C@@H]3C=C(C)C4=CC(=O)CC[C@]4(C)[C@H]3CC[C@@]21C [MEGESTROL ACETATE]

settings: human gut metagenome, 24 h, 2 µM; remark: another data set of the same source

Bacterial Biotransformation | Compound
Compound NOT metabolized | OC(c1cc(C(F)(F)F)nc2c(C(F)(F)F)cccc12)C1CCCCN1 (stereo not given) [MEFLOQUINE]
Compound metabolized | CC(=O)O[C@]1(C(C)=O)CC[C@H]2[C@@H]3C=C(C)C4=CC(=O)CC[C@]4(C)[C@H]3CC[C@@]21C [MEGESTROL ACETATE]

assay: (§1) The drug is tested on Z-003 corresponding to pig gut metagenome with ENA study accession number: PRJEB37062 and ENA sample accession number: ERS12561803 for biotransformation under anaerobic condition. The drug concentrations were measured over 9 timepoints collected between 0 and 24 hours of incubation by liquid-chromatography-coupled mass spectrometry (LC–MS); settings: 2 µM

Bacterial Biotransformation | Compound
Compound metabolized | OC(c1cc(C(F)(F)F)nc2c(C(F)(F)F)cccc12)C1CCCCN1 (stereo not given) [MEFLOQUINE]
Compound metabolized | CC(=O)O[C@]1(C(C)=O)CC[C@H]2[C@@H]3C=C(C)C4=CC(=O)CC[C@]4(C)[C@H]3CC[C@@]21C [MEGESTROL ACETATE]

settings: human gut metagenome, 24 h, 2 µM; remark: another data set of the same source

Bacterial Biotransformation | Compound
Compound metabolized | OC(c1cc(C(F)(F)F)nc2c(C(F)(F)F)cccc12)C1CCCCN1 (stereo not given) [MEFLOQUINE]
Compound metabolized | CC(=O)O[C@]1(C(C)=O)CC[C@H]2[C@@H]3C=C(C)C4=CC(=O)CC[C@]4(C)[C@H]3CC[C@@]21C [MEGESTROL ACETATE]

settings: human gut metagenome, 24 h, 2 µM; remark: another data set of the same source

Bacterial Biotransformation | Compound
Compound metabolized | OC(c1cc(C(F)(F)F)nc2c(C(F)(F)F)cccc12)C1CCCCN1 (stereo not given) [MEFLOQUINE]
Compound metabolized | CC(=O)O[C@]1(C(C)=O)CC[C@H]2[C@@H]3C=C(C)C4=CC(=O)CC[C@]4(C)[C@H]3CC[C@@]21C [MEGESTROL ACETATE]

settings: human gut metagenome, 24 h, 2 µM; remark: another data set of the same source

Bacterial Biotransformation | Compound
Compound NOT metabolized | OC(c1cc(C(F)(F)F)nc2c(C(F)(F)F)cccc12)C1CCCCN1 (stereo not given) [MEFLOQUINE]
Compound metabolized | CC(=O)O[C@]1(C(C)=O)CC[C@H]2[C@@H]3C=C(C)C4=CC(=O)CC[C@]4(C)[C@H]3CC[C@@]21C [MEGESTROL ACETATE]

settings: human gut metagenome, 24 h, 2 µM; remark: another data set of the same source

Bacterial Biotransformation | Compound
Compound NOT metabolized | OC(c1cc(C(F)(F)F)nc2c(C(F)(F)F)cccc12)C1CCCCN1 (stereo not given) [MEFLOQUINE]
Compound metabolized | CC(=O)O[C@]1(C(C)=O)CC[C@H]2[C@@H]3C=C(C)C4=CC(=O)CC[C@]4(C)[C@H]3CC[C@@]21C [MEGESTROL ACETATE]

assay: as §1, with “Z-030” for “Z-003”, “mouse” for “pig”, “ERS12561829” for “ERS12561803”; settings: 2 µM

Bacterial Biotransformation | Compound
Compound NOT metabolized | OC(c1cc(C(F)(F)F)nc2c(C(F)(F)F)cccc12)C1CCCCN1 (stereo not given) [MEFLOQUINE]
Compound NOT metabolized | CC(=O)O[C@]1(C(C)=O)CC[C@H]2[C@@H]3C=C(C)C4=CC(=O)CC[C@]4(C)[C@H]3CC[C@@]21C [MEGESTROL ACETATE]

assay: as §1, with “WLS-077” for “Z-003”, “human” for “pig”, “ERS12561750” for “ERS12561803”; settings: 2 µM

Bacterial Biotransformation | Compound
Compound metabolized | OC(c1cc(C(F)(F)F)nc2c(C(F)(F)F)cccc12)C1CCCCN1 (stereo not given) [MEFLOQUINE]
Compound metabolized | CC(=O)O[C@]1(C(C)=O)CC[C@H]2[C@@H]3C=C(C)C4=CC(=O)CC[C@]4(C)[C@H]3CC[C@@]21C [MEGESTROL ACETATE]

assay: as §1, with “Z-020” for “Z-003”, “rabbit” for “pig”, “ERS12561819” for “ERS12561803”; settings: 2 µM

Bacterial Biotransformation | Compound
Compound metabolized | OC(c1cc(C(F)(F)F)nc2c(C(F)(F)F)cccc12)C1CCCCN1 (stereo not given) [MEFLOQUINE]
Compound metabolized | CC(=O)O[C@]1(C(C)=O)CC[C@H]2[C@@H]3C=C(C)C4=CC(=O)CC[C@]4(C)[C@H]3CC[C@@]21C [MEGESTROL ACETATE]

assay: as §1, with “Z-008” for “Z-003”, “to” for “to pig gut”, “ERS12561808” for “ERS12561803”; settings: 2 µM

Bacterial Biotransformation | Compound
Compound NOT metabolized | OC(c1cc(C(F)(F)F)nc2c(C(F)(F)F)cccc12)C1CCCCN1 (stereo not given) [MEFLOQUINE]
Compound NOT metabolized | CC(=O)O[C@]1(C(C)=O)CC[C@H]2[C@@H]3C=C(C)C4=CC(=O)CC[C@]4(C)[C@H]3CC[C@@]21C [MEGESTROL ACETATE]

assay: as §1, with “Z-026” for “Z-003”, “to” for “to pig gut”, “ERS12561825” for “ERS12561803”; settings: 2 µM

Bacterial Biotransformation | Compound
Compound metabolized | OC(c1cc(C(F)(F)F)nc2c(C(F)(F)F)cccc12)C1CCCCN1 (stereo not given) [MEFLOQUINE]
Compound metabolized | CC(=O)O[C@]1(C(C)=O)CC[C@H]2[C@@H]3C=C(C)C4=CC(=O)CC[C@]4(C)[C@H]3CC[C@@]21C [MEGESTROL ACETATE]

settings: human gut metagenome, 24 h, 2 µM; remark: another data set of the same source

Bacterial Biotransformation | Compound
Compound metabolized | OC(c1cc(C(F)(F)F)nc2c(C(F)(F)F)cccc12)C1CCCCN1 (stereo not given) [MEFLOQUINE]
Compound metabolized | CC(=O)O[C@]1(C(C)=O)CC[C@H]2[C@@H]3C=C(C)C4=CC(=O)CC[C@]4(C)[C@H]3CC[C@@]21C [MEGESTROL ACETATE]

settings: human gut metagenome, 24 h, 2 µM; remark: another data set of the same source

Bacterial Biotransformation | Compound
Compound NOT metabolized | OC(c1cc(C(F)(F)F)nc2c(C(F)(F)F)cccc12)C1CCCCN1 (stereo not given) [MEFLOQUINE]
Compound metabolized | CC(=O)O[C@]1(C(C)=O)CC[C@H]2[C@@H]3C=C(C)C4=CC(=O)CC[C@]4(C)[C@H]3CC[C@@]21C [MEGESTROL ACETATE]

assay: as §1, with “WLS-220” for “Z-003”, “human” for “pig”, “ERS12561769” for “ERS12561803”; settings: 2 µM

Bacterial Biotransformation | Compound
Compound metabolized | OC(c1cc(C(F)(F)F)nc2c(C(F)(F)F)cccc12)C1CCCCN1 (stereo not given) [MEFLOQUINE]
Compound metabolized | CC(=O)O[C@]1(C(C)=O)CC[C@H]2[C@@H]3C=C(C)C4=CC(=O)CC[C@]4(C)[C@H]3CC[C@@]21C [MEGESTROL ACETATE]

settings: human gut metagenome, 24 h, 2 µM; remark: another data set of the same source

Bacterial Biotransformation | Compound
Compound NOT metabolized | OC(c1cc(C(F)(F)F)nc2c(C(F)(F)F)cccc12)C1CCCCN1 (stereo not given) [MEFLOQUINE]
Compound metabolized | CC(=O)O[C@]1(C(C)=O)CC[C@H]2[C@@H]3C=C(C)C4=CC(=O)CC[C@]4(C)[C@H]3CC[C@@]21C [MEGESTROL ACETATE]

settings: human gut metagenome, 24 h, 2 µM; remark: another data set of the same source

Bacterial Biotransformation | Compound
Compound metabolized | OC(c1cc(C(F)(F)F)nc2c(C(F)(F)F)cccc12)C1CCCCN1 (stereo not given) [MEFLOQUINE]
Compound metabolized | CC(=O)O[C@]1(C(C)=O)CC[C@H]2[C@@H]3C=C(C)C4=CC(=O)CC[C@]4(C)[C@H]3CC[C@@]21C [MEGESTROL ACETATE]

assay: as §1, with “WLS-007” for “Z-003”, “human” for “pig”, “ERS12561742” for “ERS12561803”; settings: 2 µM

Bacterial Biotransformation | Compound
Compound NOT metabolized | OC(c1cc(C(F)(F)F)nc2c(C(F)(F)F)cccc12)C1CCCCN1 (stereo not given) [MEFLOQUINE]
Compound metabolized | CC(=O)O[C@]1(C(C)=O)CC[C@H]2[C@@H]3C=C(C)C4=CC(=O)CC[C@]4(C)[C@H]3CC[C@@]21C [MEGESTROL ACETATE]

assay: as §1, with “WLS-310” for “Z-003”, “human” for “pig”, “ERS12561785” for “ERS12561803”; settings: 2 µM

Bacterial Biotransformation | Compound
Compound metabolized | OC(c1cc(C(F)(F)F)nc2c(C(F)(F)F)cccc12)C1CCCCN1 (stereo not given) [MEFLOQUINE]
Compound metabolized | CC(=O)O[C@]1(C(C)=O)CC[C@H]2[C@@H]3C=C(C)C4=CC(=O)CC[C@]4(C)[C@H]3CC[C@@]21C [MEGESTROL ACETATE]
